The values below come from patent publication US20100305213A1, “TREATMENT OF HEART DISEASE USING BETA-BLOCKERS” (Bayer Animal Health GmbH, priority 2007, published 2010).

Data set [1] relates to transient outward K+ current (Ito). Briefly: Transient outward K+ current recordings in isolated ventricular myocytes of treated dogs. The format is in vivo, dog. From the text: (§1) After altogether 5 weeks of treatment the dogs were anaesthetized according to standard veterinary procedures and ex vivo ventricular myocytes were directly isolated from the mid-lateral left ventricular free wall using an isolation procedure described by Kubalova et al., which results in isolation of myocytes from the midmyocardial region. Afterwards the animals were humanely euthanized. Recordings of single cell action potentials and K+ currents were made. See Kubalova et al., Abnormal intrastore calcium signaling in chronic heart failure, Proc Nat Acad Sci 2005; 102: 14104-14109. There are two K+ currents which are expected to modulate the resting membrane potential and the action potential duration, and are known to be altered during heart failure, the inward and the outward K+ currents. The transient outward K+ current, (Ito) was recorded in all four groups and data was recorded and analyzed.

In data set [2] the test system is dogs with pacing-induced heart failure. In kind it is in vivo. The protocol: A study was conducted with two groups of conscious dogs with pacing-induced heart failure to determine the tolerance and potential effects of different doses of bisoprolol fumarate. […] ECG (PQ, QRS, RR, QT, QTcF, and QTcV intervals), echocardiography (left ventricular shortening fraction (LVSF) and systemic arterial blood pressure (SBP, DBP, MAP and pulse pressure) were monitored in the two groups. Heart failure was produced by rapid ventricular pacing to reduce left ventricular shortening fraction (LVSF) greater than 15% from baseline.
In the first group, the conservative up-titration study, the dogs were treated with weekly increasing oral doses of 0.005, 0.01, 0.03, 0.05 and 0.1 mg/kg bisoprolol fumarate. In the second group, the aggressive up-titration study, the dogs were treated with weekly increasing doses of 0.01, 0.05, 0.1, 0.5 and 1 mg/kg bisoprolol fumarate on top of a dose of 0.5 mg/kg of enalapril, 4 mg/kg of furosemide, and 0.003 mg/kg of digoxin. These two groups were compared to a placebo group that was treated with the same doses of the standard heart failure therapy (enalapril, furosemide and digoxin) alone.

The subject of data set [3] is isolated ventricular myocytes. Briefly: Action potentials in ventricular myocytes isolated ex vivo after 5 weeks of treatment (perforated whole cell patch clamp). More on the design: species or system dog. As to conditions: for APD50 compared to the placebo-treated heart failure group / APD90 compared to normal controls / heart failure induced prolongation of the APD90: 0.5 and 1 Hz. From the text: After altogether 5 weeks of treatment the dogs were anaesthetized according to standard veterinary procedures and ex vivo ventricular myocytes were directly isolated from the mid-lateral left ventricular free wall using an isolation procedure described by Kubalova et al., which results in isolation of myocytes from the midmyocardial region. Afterwards the animals were humanely euthanized. Recordings of single cell action potentials and K+ currents were made. See Kubalova et al., Abnormal intrastore calcium signaling in chronic heart failure, Proc Nat Acad Sci 2005; 102: 14104-14109. For measurement of the action potentials myocytes were placed in a laminin coated cell chamber and superfused with a bath solution. Only quiescent myocytes with sharp margins and clear striations were used for the electrophysiological study. Borosilicate glass micropipettes were filled with a pipette solution that was pH adjusted to 7.2. Perforated whole cell patch clamp was used to minimize alterations in the intracellular milieu. Action Potentials (APs) were recorded with the perforated whole cell patch techniques. Action potentials were recorded in isolated ventricular myocytes, which were characterized in the standard manner as the durations to 50% and 90% of repolarization. APs were measured as the average of the last 10 (steady-state) APs, obtained during a train of twenty five APs at each stimulation rate. An average of 2-3 myocytes was measured from each heart failure dog. Action Potentials were recorded in four groups. The following numbers of recordings were obtained and used in the analyzed data (number (n) indicates the number of myocytes): Control (CTRL, untreated, healthy dogs) (n=10) HF-placebo (placebo-treated dogs in heart failure (HF-PL)) (n=17) HF-C-Up bisoprolol, according to conservative up-titration bisoprolol treated dogs in heart failure (n=13) HF-A-Up bisoprolol, according to aggressive up-titration bisoprolol treated dogs in heart failure (n=15) Resting membrane potential was measured at 0.5 Hz and 1 Hz to bracket the physiologic range of resting heart rates (FIG. 1).
On the technique in general: Patch clamp records ionic current or voltage across a cell membrane.

Data set [4] concerns inward rectifier K+ current (IK1). Kind of data set: Inward rectifier K+ current recordings in isolated ventricular myocytes of treated dogs. The format is in vivo, dog.
Source text: as §1, with “The inward rectifier K+ current (IK1) is the primary determinant of the resting membrane potential (inward current) and modulates the final phase of repolarization (outward current). Reductions in inward current result in depolarization of the resting potential, while reductions in” for “The transient”, “outward current can contribute to action potential duration prolongation. IK1” for “outward K+ current, (Ito)”, “in each of the” for “in all”, “four groups,” for “four groups and”, “analyzed. The peak outward K+ current was recorded in each of the four groups (FIG. 5 bottom), data was recorded and analyzed.” for “analyzed.”

[5] abbreviates: aggressive up-titration (HF-A-Up).
Where [6] appears, read: conservative up-titration (HF-C-Up).

Molecules are shown by their SMILES. Structures can show the parent of a compound that is named as a salt.

`CC(C)NCC(O)COc1ccc(COCCOC(C)C)cc1` (stereo not drawn) [bisoprolol fumarate]: in data set [1] (aggressive up-titration protocol (HF-A-Up Bis)), the “effects of heart failure on Ito” value was “did not alter”. The “heart failure induced reductions in Ito” value in data set [1] (conservative up-titration protocol (HF-C-Up Bis), at the two highest test potentials (+40 and +50 mV)) is on record as “significantly attenuated”. In addition, in data set [2] (dog, in vivo, po), the tolerance entry is reported as “well tolerated”. Also, the “cardioselective β-blockade effect (prolongation of PQ interval and reduction of heart rate)” value in data set [2] (doses used in both up-titration groups, dogs with heart failure) is on record as “near to maximum cardioselective β-blockade effect”. Moreover, in data set [3] (setting [5]), the “APD50 compared to normal control myocytes” value is recorded as “did not differ”, the “APD50 compared to the placebo-treated heart failure group” value is reported as “statistically significant reduction”, the “APD90 compared to normal controls” value was “did not differ” and the “heart failure induced prolongation of the APD90” value is “significantly attenuated”. In data set [3] (setting [6]), the “APD50 compared to normal control myocytes” value is “did not differ”, the “APD50 compared to the placebo-treated heart failure group” value is “statistically significant reduction”, the “APD90 compared to normal controls” value is on record as “did not differ” and the “heart failure induced prolongation of the APD90” value is on record as “significantly attenuated”. In data set [3] (summary, both conservative and aggressive up-titration dosing regimens, physiologically relevant heart rates), the “HF-induced changes in the action potential durations (particularly APD90 prolongation)” value was “significantly attenuated and even reversed to the physiological normal”. Also, the “inward IK1 current conductance, difference between the groups” value in data set [4] (all four groups) is given as “no difference”. The “peak outward IK1 current” value in data set [4] (conservative up-titration (HF-C-Up) relative to placebo (HF PL) and HF-A-Up) is recorded as “increased”.
